According to ChEMBL document CHEMBL1681747, “Novel second generation analogs of eribulin. Part II: Orally available and active against resistant tumors in vivo” (Bioorg Med Chem Lett, 2011):
Activity calls are given as the source filed them. The calls are words filed in the database; no cut-off is given here.

Columns and labels:
DLD-1 [1] = assay: Cytotoxicity against human DLD1 cells; type: functional, cell-based
[2] = Tmax in BALB/c mouse at 5 mg/kg; type: ADME, organism-based; set-up: dose 5 mg/kg; conditions: in vivo
[3] = Volume of distribution at steady state in BALB/c mouse at 5 mg/kg, iv; type: ADME, organism-based; set-up: dose 5 mg/kg, route intravenous; conditions: in vivo, read-out: Vdss
[4] = Clearance in BALB/c mouse at 5 mg/kg, iv; type: ADME, organism-based; set-up: dose 5 mg/kg, route intravenous; conditions: in vivo
[5] = Half life in BALB/c mouse at 5 mg/kg; type: ADME, organism-based; set-up: dose 5 mg/kg; conditions: in vivo
HCT-15 = assay: Cytotoxicity against human HCT15 cells; type: functional, cell-based
[6] = AUC (0 to infinity) in BALB/c mouse at 5 mg/kg; type: ADME, organism-based; set-up: time infinity, dose 5 mg/kg; conditions: plasma
[7] = Oral bioavailability in BALB/c mouse at 5 mg/kg; type: ADME, organism-based; conditions: in vivo
DLD-1 [8] = assay: Antitumor activity against human DLD1 cells xenografted in iv dosed athymic mouse assessed as tumor growth inhibition administered qd for weekly 3 days; type: functional, organism-based
DLD-1 [9] = assay: Antitumor activity against human DLD1 cells xenografted in athymic mouse assessed as tumor stasis at 1.3 to 3 mg/kg, iv administered 2 weeks after tumor implantation qd for weekly 3 days; type: functional, organism-based
LOX = assay: Antitumor activity against human LOX cells xenografted in athymic mouse assessed as long term tumor regression at 0.95 to 3 mg/kg, po administered 6 days after tumor implantation qd for 2 weeks; type: functional, organism-based
[10] = AUC (0 to infinity) in BALB/c mouse at 10 mg/kg; type: ADME, organism-based; set-up: time infinity, dose 10 mg/kg; conditions: plasma
[11] = Oral bioavailability in BALB/c mouse at 10 mg/kg; type: ADME, organism-based; conditions: in vivo
[12] = Half life in BALB/c mouse at 10 mg/kg; type: ADME, organism-based; set-up: dose 10 mg/kg; conditions: in vivo
[13] = Clearance in BALB/c mouse at 10 mg/kg, iv; type: ADME, organism-based; set-up: dose 10 mg/kg, route intravenous; conditions: in vivo
[14] = Tmax in BALB/c mouse at 10 mg/kg; type: ADME, organism-based; set-up: dose 10 mg/kg; conditions: in vivo
[15] = Volume of distribution at steady state in BALB/c mouse at 10 mg/kg, iv; type: ADME, organism-based; set-up: dose 10 mg/kg, route intravenous; conditions: in vivo, read-out: Vdss

Compound | IC50 (DLD-1 [1]) [nM] | Tmax [2] [min] | Vd [3] [L/kg] | clearance [4] [mL/min/kg] | half-life [5] [min] | IC50 (HCT-15) [nM] | AUC(0-inf) [6] [ng·h/mL] | bioavailability [7] [%] | Activity (DLD-1 [8]) | Activity (DLD-1 [9]) | Activity (LOX) | AUC(0-inf) [10] [ng·h/mL] | bioavailability [11] [%] | half-life [12] [min] | clearance [13] [mL/min/kg] | Tmax [14] [min] | Vd [15] [L/kg]
C=C1C[C@@H]2CC[C@@]34C[C@H]5O[C@H]6[C@@H](O3)[C@H]3O[C@H](CC[C@@H]3O[C@H]6[C@H]5O4)CC(=O)C[C@@H]3[C@@H](OC)[C@@H](CC(=O)CN4CCOCC4)O[C@H]3C[C@H]3O[C@@H](CC[C@@H]1O2)C[C@@H](C)C3=C | 0.7 | 5 | 3.64 | 47 | 102 | 0.46 | 236 | 13.3 |  |  |  |  |  |  |  |  | 
C=C1C[C@@H]2CC[C@@]34C[C@H]5O[C@H]6[C@@H](O3)[C@H]3O[C@H](CC[C@@H]3O[C@H]6[C@H]5O4)CC(=O)C[C@@H]3[C@@H](OC)[C@@H](C[C@@H](CN4CCOCC4)OC)O[C@H]3C[C@H]3O[C@@H](CC[C@@H]1O2)C[C@@H](C)C3=C | 0.23 | 5 | 0.92 | 11.3 | 54 | 0.2 | 1090 | 14.9 | Dose-dependent effect | Active | Active |  |  |  |  |  | 
C=C1C[C@@H]2CC[C@@]34C[C@H]5O[C@H]6[C@@H](O3)[C@H]3O[C@H](CC[C@@H]3O[C@H]6[C@H]5O4)CC(=O)C[C@@H]3[C@@H](OC)[C@@H](CCNCC(F)F)O[C@H]3C[C@H]3O[C@@H](CC[C@@H]1O2)C[C@@H](C)C3=C | 3.16 | 5 | 4.78 | 48.5 | 246 | 3.11 | 63 | 11.3 |  |  |  |  |  |  |  |  | 
C=C1C[C@@H]2CC[C@@]34C[C@H]5O[C@H]6[C@@H](O3)[C@H]3O[C@H](CC[C@@H]3O[C@H]6[C@H]5O4)CC(=O)C[C@@H]3[C@@H](OC)[C@@H](C[C@H](O)CN)O[C@H]3C[C@H]3O[C@@H](CC[C@@H]1O2)C[C@@H](C)C3=C [ERIBULIN] |  |  |  |  |  |  |  |  |  |  |  | 161 | 3.2 | 924 | 19.8 | 5 | 4.95
